Test results: ChEMBL document CHEMBL1134087, “Inhibitors of the bacterial cell wall biosynthesis enzyme MurC” (Bioorg Med Chem Lett, 2001); call rule not given here

Columns and labels:
[1] = Tested for inhibitory activity against UDP-N-acetylmuramoyl-L-alanine synthetase from Escherichia coli by malachite green assay; Inactive
[2] = Tested for inhibitory activity against UDP-N-acetylmuramoyl-L-alanine synthetase from Escherichia coli by malachite green assay

With `CC(CP(=O)(O)COCCCOP(=O)(O)O)C(=O)O` (centres undefined) the IC50 [1] was “Not Active”.

An IC50 [2] of 60 µM was found for `CC(CP(=O)(O)COCCCOP(=O)(O)OP(=O)(O)OC[C@H]1O[C@@H](n2ccc(=O)[nH]c2=O)[C@H](O)[C@@H]1O)C(=O)O` (some centres undefined) in this work.

An IC50 [2] of 0.049 µM was found for `CC(=O)N[C@H]1C(OP(=O)(O)OP(=O)(O)OC[C@H]2O[C@@H](n3ccc(=O)[nH]c3=O)[C@H](O)[C@@H]2O)O[C@H](CO)[C@@H](O)[C@@H]1OCP(=O)(O)CC(C)C(=O)O` (some centres undefined) in this work.

An IC50 [2] greater than 100 µM was found for `CC(=O)N[C@H]1[C@@H](OP(=O)(O)O)O[C@H](CO)[C@@H](O)[C@@H]1OCP(=O)(O)CC(C)C(=O)O` (some centres undefined) in this work.
